Eight compounds from ChEMBL document CHEMBL1201862, “PubChem BioAssay data set” (2004) can be followed below.

SMILES strings stand for the structures. Active and inactive are the calls of the source.

For assay [1], the target named is Dual specificity tyrosine-phosphorylation-regulated kinase 1A (Rattus norvegicus, UniProt Q63470). The class given is biochemical, Homo sapiens.
Assay [2] has as its target T1, Caspase-3 (Homo sapiens, UniProt P42574).
T1 sequence (P42574 whole entry): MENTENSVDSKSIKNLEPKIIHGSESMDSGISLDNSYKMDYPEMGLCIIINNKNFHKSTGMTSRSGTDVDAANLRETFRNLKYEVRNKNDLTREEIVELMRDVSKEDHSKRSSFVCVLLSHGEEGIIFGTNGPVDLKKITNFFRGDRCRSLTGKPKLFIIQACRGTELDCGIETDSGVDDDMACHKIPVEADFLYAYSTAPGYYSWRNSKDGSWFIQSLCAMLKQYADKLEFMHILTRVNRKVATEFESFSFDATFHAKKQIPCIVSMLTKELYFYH
In words: caspase-3 inhibitors as off-family protease, SAR follow-up, selectivity assay for SENP protease inhibitor project, biochemical, luminescence, set 2 (AID 588599). The class given is functional.

The target in assay [3] is T2, Sentrin-specific protease 8 (Homo sapiens, UniProt Q96LD8).
T2 sequence (Q96LD8 whole entry): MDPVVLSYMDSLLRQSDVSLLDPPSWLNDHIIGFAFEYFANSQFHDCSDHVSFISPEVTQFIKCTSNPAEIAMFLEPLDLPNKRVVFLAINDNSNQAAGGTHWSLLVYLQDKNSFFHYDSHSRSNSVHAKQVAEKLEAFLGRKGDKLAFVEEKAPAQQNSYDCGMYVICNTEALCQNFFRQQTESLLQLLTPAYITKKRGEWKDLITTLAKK
As to the kind of experiment: SENP8 protease inhibitors, SAR follow-up, biochemical, luminescence, set 2 (AID 588601). The class given is functional.

Assay [4] addresses T3, Sentrin-specific protease 7 (Homo sapiens, UniProt Q9BQF6).
T3 sequence (Q9BQF6 whole entry): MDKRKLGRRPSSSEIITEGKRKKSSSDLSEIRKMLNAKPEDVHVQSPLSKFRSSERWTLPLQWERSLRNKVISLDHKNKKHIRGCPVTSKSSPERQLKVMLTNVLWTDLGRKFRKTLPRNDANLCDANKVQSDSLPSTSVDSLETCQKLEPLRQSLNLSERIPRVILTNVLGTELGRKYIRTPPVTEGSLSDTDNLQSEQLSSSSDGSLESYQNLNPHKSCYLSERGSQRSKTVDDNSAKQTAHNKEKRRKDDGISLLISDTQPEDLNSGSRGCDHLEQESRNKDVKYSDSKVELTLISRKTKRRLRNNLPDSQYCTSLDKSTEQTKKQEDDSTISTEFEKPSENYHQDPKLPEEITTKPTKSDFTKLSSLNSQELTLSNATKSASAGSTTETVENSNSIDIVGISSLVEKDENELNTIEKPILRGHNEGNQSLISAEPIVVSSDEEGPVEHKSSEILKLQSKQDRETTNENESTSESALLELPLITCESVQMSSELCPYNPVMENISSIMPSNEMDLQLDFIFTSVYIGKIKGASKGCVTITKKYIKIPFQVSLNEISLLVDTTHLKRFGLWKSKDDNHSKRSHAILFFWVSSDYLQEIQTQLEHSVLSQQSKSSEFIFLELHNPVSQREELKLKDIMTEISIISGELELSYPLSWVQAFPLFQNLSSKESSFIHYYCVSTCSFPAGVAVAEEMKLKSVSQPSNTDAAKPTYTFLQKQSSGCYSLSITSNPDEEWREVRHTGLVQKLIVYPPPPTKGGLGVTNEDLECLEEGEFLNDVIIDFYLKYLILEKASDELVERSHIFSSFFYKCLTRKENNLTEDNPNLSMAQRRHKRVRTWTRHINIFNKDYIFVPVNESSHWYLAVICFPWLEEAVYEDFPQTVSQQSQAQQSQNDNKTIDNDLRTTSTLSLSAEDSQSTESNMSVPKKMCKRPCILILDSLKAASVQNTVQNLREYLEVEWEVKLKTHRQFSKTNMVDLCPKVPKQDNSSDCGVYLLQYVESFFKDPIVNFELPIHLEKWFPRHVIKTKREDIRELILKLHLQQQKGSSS
In words: SENP7 protease inhibitors, SAR follow-up, biochemical, luminescence, set 2 (AID 588600). The class given is functional.

Assay [5] deals with T4, Sentrin-specific protease 6 (Homo sapiens, UniProt Q9GZR1).
T4 sequence (Q9GZR1 whole entry): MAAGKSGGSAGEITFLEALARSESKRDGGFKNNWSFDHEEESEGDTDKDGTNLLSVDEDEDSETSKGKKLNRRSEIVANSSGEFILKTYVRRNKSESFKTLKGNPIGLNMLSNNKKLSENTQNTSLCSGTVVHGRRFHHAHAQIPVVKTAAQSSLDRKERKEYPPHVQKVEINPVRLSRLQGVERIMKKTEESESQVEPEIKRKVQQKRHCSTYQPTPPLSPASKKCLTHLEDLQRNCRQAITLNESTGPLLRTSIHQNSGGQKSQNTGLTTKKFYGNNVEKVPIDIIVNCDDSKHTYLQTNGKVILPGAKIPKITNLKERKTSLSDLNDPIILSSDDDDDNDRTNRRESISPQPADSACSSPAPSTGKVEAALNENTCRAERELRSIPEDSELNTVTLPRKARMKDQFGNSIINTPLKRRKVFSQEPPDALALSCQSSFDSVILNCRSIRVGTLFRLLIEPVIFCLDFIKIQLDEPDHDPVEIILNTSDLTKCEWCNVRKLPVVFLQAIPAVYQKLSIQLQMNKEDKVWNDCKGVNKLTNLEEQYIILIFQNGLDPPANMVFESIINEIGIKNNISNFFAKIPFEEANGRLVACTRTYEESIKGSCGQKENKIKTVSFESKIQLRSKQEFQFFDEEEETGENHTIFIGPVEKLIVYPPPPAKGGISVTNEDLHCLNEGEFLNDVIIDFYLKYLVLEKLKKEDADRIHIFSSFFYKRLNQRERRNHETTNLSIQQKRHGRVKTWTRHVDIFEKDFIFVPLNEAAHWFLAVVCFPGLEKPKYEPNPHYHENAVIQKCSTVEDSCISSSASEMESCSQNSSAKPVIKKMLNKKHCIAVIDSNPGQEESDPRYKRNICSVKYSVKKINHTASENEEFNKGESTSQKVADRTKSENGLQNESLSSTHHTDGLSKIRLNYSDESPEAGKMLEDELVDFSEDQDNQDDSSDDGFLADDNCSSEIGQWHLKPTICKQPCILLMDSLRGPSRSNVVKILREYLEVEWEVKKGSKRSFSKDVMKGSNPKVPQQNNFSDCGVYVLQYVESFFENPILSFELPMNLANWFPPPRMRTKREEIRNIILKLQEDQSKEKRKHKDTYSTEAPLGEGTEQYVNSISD
In words: SENP6 protease inhibitors, SAR follow-up, biochemical, luminescence, set 2 (AID 588598). The class given is functional.

A further assay deals with Escherichia coli. As to the kind of experiment: microbe, parasite or virus in culture.
The target of assay [6] is T5, RNA-binding protein pos-1 (Caenorhabditis elegans, UniProt G5EF15).
T5 sequence (G5EF15 whole entry): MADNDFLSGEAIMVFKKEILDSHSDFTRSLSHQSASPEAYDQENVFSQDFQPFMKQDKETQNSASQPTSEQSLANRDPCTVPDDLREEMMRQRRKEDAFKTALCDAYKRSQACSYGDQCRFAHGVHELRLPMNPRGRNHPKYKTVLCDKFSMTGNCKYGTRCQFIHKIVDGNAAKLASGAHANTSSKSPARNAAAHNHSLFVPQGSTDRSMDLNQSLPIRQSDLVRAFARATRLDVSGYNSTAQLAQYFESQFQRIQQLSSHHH
As to the kind of experiment: inhibitors of POS-1/mex-3 RNA binding, dose response, biochemical, fluorescence polarization (AID 1964).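 Note: purified POS-1 fused to maltose binding protein made in E. coli; potency of compounds blocking POS-1 binding to fluorescent RNA.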

Assay [7] has as its target T6, Zinc finger protein mex-5 (Caenorhabditis elegans, UniProt Q9XUB2).
T6 sequence (Q9XUB2 whole entry): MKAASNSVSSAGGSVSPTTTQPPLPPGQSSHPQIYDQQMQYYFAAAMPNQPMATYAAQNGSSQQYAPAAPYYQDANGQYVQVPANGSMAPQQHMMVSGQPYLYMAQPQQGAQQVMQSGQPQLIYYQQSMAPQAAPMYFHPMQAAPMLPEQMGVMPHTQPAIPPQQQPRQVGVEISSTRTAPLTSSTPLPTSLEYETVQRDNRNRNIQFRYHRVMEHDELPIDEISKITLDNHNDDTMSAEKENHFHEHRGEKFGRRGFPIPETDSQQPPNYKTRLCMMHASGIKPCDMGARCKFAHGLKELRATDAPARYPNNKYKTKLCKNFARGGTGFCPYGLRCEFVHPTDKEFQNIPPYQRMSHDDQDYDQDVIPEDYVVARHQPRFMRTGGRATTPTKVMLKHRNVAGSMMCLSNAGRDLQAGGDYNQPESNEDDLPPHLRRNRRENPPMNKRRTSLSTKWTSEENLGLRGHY
As to the kind of experiment: MEX-5/TCR-2 RNA interaction inhibitors, dose response, biochemical, C. elegans, fluorescence polarization (AID 1960).

Assay [8] addresses Induced myeloid leukemia cell differentiation protein Mcl-1 (Homo sapiens, UniProt Q07820). The class given is functional.
Assay [9] has as its target Glucose-6-phosphate 1-dehydrogenase (Homo sapiens, UniProt P11413). As to the kind of experiment: human G6PD enzyme inhibitors, dose response, selectivity assay for P. falciparum G6PD inhibitor project, biochemical, fluorescence (AID 504792). The class given is functional.
Another assay has as its system HEK293. As to the kind of experiment: cells. Format: functional, cell-based. As to conditions: Homo sapiens.
In assay [10] the target is T7, Nuclear receptor subfamily 0 group B member 1 (Homo sapiens, UniProt P51843).
T7 sequence (P51843 whole entry): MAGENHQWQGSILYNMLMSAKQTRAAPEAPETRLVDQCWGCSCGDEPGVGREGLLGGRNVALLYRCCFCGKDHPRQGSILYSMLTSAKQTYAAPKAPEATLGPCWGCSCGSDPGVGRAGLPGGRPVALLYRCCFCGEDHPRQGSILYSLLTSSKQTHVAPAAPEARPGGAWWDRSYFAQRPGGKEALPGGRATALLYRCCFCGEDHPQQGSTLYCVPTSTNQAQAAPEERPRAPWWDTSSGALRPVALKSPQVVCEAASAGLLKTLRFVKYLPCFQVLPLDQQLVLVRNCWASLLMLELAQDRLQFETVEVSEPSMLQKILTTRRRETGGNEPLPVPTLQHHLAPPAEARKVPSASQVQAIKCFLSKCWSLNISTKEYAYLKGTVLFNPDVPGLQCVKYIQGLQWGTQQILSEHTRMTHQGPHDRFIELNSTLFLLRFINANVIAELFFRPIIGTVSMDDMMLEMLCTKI
As to the kind of experiment: Luminescence-based cell-based high throughput dose response assay for inhibitors of the orphan nuclear receptor subfamily 0, group B, member 1 (DAX1; NR0B1). [Related pubchem assays (depositor defined):AID504766, AID504790]. The class given is functional.

For assay [11], the target named is T2, Sentrin-specific protease 8. As to the kind of experiment: SENP8 protease inhibitors, SAR follow-up, biochemical, luminescence (AID 504501). Format: functional.
In assay [12] the target is T1, Caspase-3. As to the kind of experiment: SAR Analysis of small molecule inhibitors of Sentrin-specific proteases (SENPs) using a Caspase-3 Selectivity assay. [Related pubchem assays (depositor defined):AID2540, AID2599, AID434973, AID489001]. The class given is functional.
Assay [13] addresses T4, Sentrin-specific protease 6. As to the kind of experiment: SAR Analysis of small molecule inhibitors of Sentrin-specific protease 6 (SENP6) using a Luminescent assay. [Related pubchem assays (depositor defined):AID2582, AID2599]. The class given is functional.
In assay [14] the target is T3, Sentrin-specific protease 7. In words: SENP7 protease inhibitors, SAR follow-up, biochemical, luminescence (AID 504497). Format: functional.

Chain of Glucose-6-phosphate 1-dehydrogenase (P11413 whole entry): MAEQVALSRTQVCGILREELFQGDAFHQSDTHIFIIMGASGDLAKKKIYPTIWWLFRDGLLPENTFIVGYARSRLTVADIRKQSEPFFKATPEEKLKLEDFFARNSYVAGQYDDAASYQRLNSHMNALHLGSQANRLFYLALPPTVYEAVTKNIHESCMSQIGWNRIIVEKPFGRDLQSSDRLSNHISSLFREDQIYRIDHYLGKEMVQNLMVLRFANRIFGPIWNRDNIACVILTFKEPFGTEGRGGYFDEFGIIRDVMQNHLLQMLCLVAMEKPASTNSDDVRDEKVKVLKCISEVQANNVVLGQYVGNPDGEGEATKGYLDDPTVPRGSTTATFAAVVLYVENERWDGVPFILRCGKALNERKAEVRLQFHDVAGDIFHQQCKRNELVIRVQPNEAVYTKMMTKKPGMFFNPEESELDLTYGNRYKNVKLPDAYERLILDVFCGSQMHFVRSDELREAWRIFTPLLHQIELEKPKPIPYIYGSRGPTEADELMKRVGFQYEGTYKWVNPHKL
Chain of Induced myeloid leukemia cell differentiation protein Mcl-1 (Q07820 whole entry): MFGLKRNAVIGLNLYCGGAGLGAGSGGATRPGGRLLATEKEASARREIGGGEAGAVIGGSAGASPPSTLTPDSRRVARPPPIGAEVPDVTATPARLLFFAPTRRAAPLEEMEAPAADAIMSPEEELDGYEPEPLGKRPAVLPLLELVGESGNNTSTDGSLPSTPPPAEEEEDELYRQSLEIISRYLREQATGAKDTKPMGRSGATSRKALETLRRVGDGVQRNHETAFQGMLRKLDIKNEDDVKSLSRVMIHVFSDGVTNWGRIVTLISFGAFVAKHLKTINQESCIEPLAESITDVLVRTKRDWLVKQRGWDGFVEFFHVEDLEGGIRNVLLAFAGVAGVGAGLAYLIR

For `Cn1c(C(=O)NC2CC2)cc2c(=O)n(C)c3ccccc3c21`, the AC50 in [1] is 15.5 µM (active).

For `O=C(Nc1nc2ccccc2s1)c1cccc(S(=O)(=O)N2CCN(c3ccccc3)CC2)c1`, the IC50 (on Caspase-3 [2]; in assay [3]; in [4]; in [5]) was > 99 µM (inactive) in each case.

As for `Cc1ccccc1C(=O)N1CCC(C(=O)Nc2ccccc2Cl)CC1`, in the assay on Escherichia coli, the AC50 was 27.8 µM (active).

Consider `COc1cc(O)c(C(=O)O)c(-c2cc(O)c(O)cc2C)c1` [ALTENUSIN], for which the results for the EC50 in assay [6] and in assay [7] were 31 µM (active) and > 300 µM (inconclusive), respectively. The values for the IC50 in assay [8] and in assay [9] were 4.15 µM (active) and 31 µM (inactive), respectively.

Regarding `Oc1ccc(-c2nc3ccccc3nc2-c2ccc(O)cc2O)c(O)c1`, the AC50 in [1] was 3.12 µM (active).

For the compound `COc1ccccc1-c1nnc(-c2ccc(C)cc2)o1`, the IC50 (in the assay on HEK293; in assay [10]) was > 67.5 µM (inactive) throughout.

For `COc1ccc(S(=O)(=O)NCc2ccco2)c2ccccc12`, in the assay on Escherichia coli, the AC50 was 28.5 µM (active).

Consider `O=C(Nc1nc2ccccc2s1)c1ccsc1`, for which the IC50 in assay [11] is 1.4 µM (active); at Caspase-3 [2], 10.4 µM (active); in assay [3], 9.92 µM (active); at Caspase-3 [12] it was 1.1 µM (active); in [4] it was 10.3 µM (active); in [13], 1.4 µM (active). The IC50 was 10.6 µM (active) in assay [5] and 1.1 µM (active) in [14].
